Assay results: US6987127B2, “Regulation of NAD(P)H oxidase growth and transcription in melanoma cells” (Charlotte-Mecklenburg Hospital Authority, priority 2001, dated 2006)

Legend:
M1619 cells = assay: Proliferation after transfection of p22phox or NOX4 sense/antisense oligonucleotides (MTT assay); type: cell-based, human; settings: 2 μg oligonucleotide, 6 hours transfection, 48 hours growth, P<0.01
[1] = system: M1619 malignant melanoma cells; assay: Proliferation of cultured cells with oxidase inhibitors (MTT assay); type: cell-based, human; settings: for Melanoma growth: M1619, data not shown
OCT-1 = settings: M1619 cells, overnight, 10-20 μmoles/L
[2] = system: cyclic-AMP responsive element (CRE); settings: M1619 cells, overnight, 10, 15, 20 μmoles/L; P<0.001 vs untreated
IκBα = settings: M1619 cells, 25 μmoles/L overnight
NF-κB p65 = settings: M1619 cells, 50 μmol/L overnight
AP-1 = settings: M1619 cells, overnight, 10-20 μmoles/L
p65 component of NF-κB = settings: M1619 cells, 50 μmol/L overnight
NF-κB = settings: M1619 cells, 50 μmol/L overnight; P<0.001 by densitometry
[3] = system: M1619 malignant melanoma cells; settings: Brar and co-workers; cited from earlier work
[4] = system: H596 non-small-cell lung cancer cells; settings: Brar et al. (2001); cited from earlier work

NOX4 antisense oliogonucleotides: antisense 5′-AGCTCCTCCAGGACACAGCC-3′ based on NOX4 gene-specific sequence (listed as DNA, chemistry not given here)
Subsequent growth compared with sense oligonucleotides (M1619 cells): significantly reduced subsequent growth

p22^phox antisense oliogonucleotides: previously reported antisense 5′-GATCTGCCCCATGGTGAGGACC-3′ for p22phox mRNA (listed as DNA, chemistry not given here)
Subsequent growth compared with sense oligonucleotides (M1619 cells): significantly reduced subsequent growth

Oc1ncnc2[nH]ncc12 [allopurinol]
Melanoma growth ([1]; 1 mmol/L): unaffected

N=C(NCCC[C@H](N)C(=O)O)N[N+](=O)[O-] [ω-nitro-L-arginine]
Melanoma growth ([1]; 100 μmol/L): unaffected

c1ccc2c(c1)[I+]c1ccccc1-2 [DPI, diphenylene iodonium]
inhibition at 50 µM ([1]; Homo sapiens, after 48 hours, highest dose (50 μmol/L), 10% FBS, P<0.001, read-out: Inhibition of M1619 malignant melanoma cell growth): 86 ± 0.5%
DNA binding to the OCT-1 oligonucleotide consensus sequence (OCT-1): does not inhibit
CRE DNA binding activity of nuclear protein [2]: inhibits CRE-binding activity in a dose-dependent manner
Phosphorylation of the NF-κB inhibitor IκBα (serine 32) (IκBα): decreased phosphorylation
Constitutive nuclear translocation of NF-κB (anti-p65 staining in nuclei) (NF-κB p65): reduces constitutive nuclear translocation of NF-κB
DNA binding to the AP-1 oligonucleotide consensus sequence (AP-1): does not inhibit
Immunoreactive p65 in nuclear protein (p65 component of NF-κB): reduces immunoreactive p65 in nuclear protein
Constitutive NF-κB DNA binding (NF-κB): greatly reduced

O=c1oc2ccccc2c(O)c1Cc1c(O)c2ccccc2oc1=O [dicumarol]
Cellular proliferation in M1619 malignant melanoma cells [3]: inhibition
Growth of H596 non-small-cell lung cancer cells [4]: inhibited growth
